The values that follow come from patent US20130045995A1 (priority 2010, published 2013).

Data set [1] concerns Phytophthora infestans. It counts as in vivo. The settings on record: 500 ppm of active ingredient; tomato, preventive; evaluated 7 days after inoculation.
The nature of data set [2]: Measurement of logP values by HPLC on reversed phase columns (EEC directive 79/831 Annex V.A8). The settings on record: for Log P: pH 2.7, 0.1% formic acid in water / acetonitrile; for chromatographic logP: reversed-phase HPLC column. It counts as physicochemical. The procedure:
Measurement of logP values was performed according EEC directive 79/831 Annex V.A8 by HPLC (High Performance Liquid Chromatography) on reversed phase columns with the following methods: […]

The subject of data set [3] is Plasmopara viticola. Briefly: Plasmopara test (grapevines) / preventive. The class given is in vivo. The settings on record: 100 ppm of active ingredient, evaluated 6 days after inoculation. The procedure:
• Plasmopara Test (Grapevines)/Preventive
Solvent: 24.5 parts by weight of acetone • 24.5 parts by weight of dimethylacetamide
Emulsifier: 1 part by weight of alkylaryl polyglycol ether
To produce a suitable preparation of active compound, 1 part by weight of active compound is mixed with the stated amounts of solvent and emulsifier, and the concentrate is diluted with water to the desired concentration.
To test for preventive activity, young plants are sprayed with the preparation of active compound at the stated rate of application. After the spray coating has dried on, the plants are inoculated with an aqueous spore suspension of Plasmopara viticola and then remain for 1 day in an incubation cabinet at approximately 20° C. and a relative atmospheric humidity of 100%. The plant is subsequently placed for 4 days in a greenhouse at approximately 21° C. and a relative atmospheric humidity of approximately 90%. The plants are then misted and placed for 1 day in an incubation cabinet.
The test is evaluated 6 days after the inoculation. 0% means an efficacy which corresponds to that of the untreated control, while an efficacy of 100% means that no disease is observed.

Like-named read-outs stand apart in the source and are kept apart here.

The term Log P denotes a log measure of how a compound divides between an organic and an aqueous phase. Low readings indicate a more hydrophilic compound, high ones a more lipophilic compound. In data set [1], `Cc1snnc1C(=NOCc1csc(NC(=O)C2CC(=O)c3cc(F)ccc3O2)n1)c1ccccc1` (mixture of isomers) [Example 7] came in with an efficacy of 98%. Also, the “Log P” value in data set [2] (HPLC) is on record as 3.72.
`Cc1snnc1C(=NOCc1cccc(NC(=O)C2COc3ccccc3O2)n1)c1ccccc1` (mixture of isomers) [Example 10]: the efficacy in data set [3] worked out at 98%; in data set [1], 95%.
In the case of `Cc1snnc1C(=NOCc1cccc(NC(=O)C2CC(=O)c3cc(F)ccc3O2)n1)c1ccccc1` (mixture of isomers) [Example 16], in data set [1], the efficacy was 95%.
Compound `Cc1snnc1C(=NOCc1csc(NC(=O)C2CCc3ccccc3O2)n1)c1ccccc1` (racemic) [Example 2] returned an efficacy in data set [1] of 100%.
`Cc1snnc1C(=NOCc1csc(NC(=O)C2Cc3ccccc3O2)n1)c1ccccc1` (racemic) [Example 3] came in with an efficacy in data set [1] of 100%.
The compound `Cc1cccc2c1OC(C(=O)Nc1nc(CON=C(c3ccccc3)c3nnsc3C)cs1)CO2` (racemic) [Example 5] yielded an efficacy in data set [1] of 100%.
For the compound `Cc1snnc1C(=NOCc1csc(NC(=O)C2COc3ccccc3O2)n1)c1ccccc1` (racemic) [Example 6], the efficacy is 77% in data set [3] and 100% in data set [1].
For the compound `Cc1cccc2c1OC(C(=O)Nc1cccc(CON=C(c3ccccc3)c3nnsc3C)n1)CO2` (racemic) [Example 12], the efficacy in data set [1] amounted to 95%. In data set [2] (HPLC), the lipophilicity (Log P) was 4.73.
Compound `Cc1snnc1C(=NOCc1cccc(NC(=O)C2COc3ccccc3O2)n1)c1ccccc1` (racemic) [Example 13] registered an efficacy in data set [1] of 100%.
In data set [1], `Cc1snnc1C(=NOCc1cccc(NC(=O)C2CCc3ccccc3O2)n1)c1ccccc1` (racemic) [Example 14] registered an efficacy of 97%. The lipophilicity (Log P) in data set [2] (HPLC) stood at 4.66.
For `Cc1snnc1C(=NOCc1cccc(NC(=O)C2Cc3ccccc3O2)n1)c1ccccc1` (racemic) [Example 15], the efficacy turned out to be 74% in data set [3] and 100% in data set [1].
Compound `Cc1snnc1C(=NOCc1csc(NC(=O)C2CN(C)c3ccccc3O2)n1)c1ccccc1` (racemic) [Example 17] registered an efficacy in data set [1] of 97%.
Regarding `Cc1snnc1C(=NOCc1cccc(NC(=O)C2CN(C)c3ccccc3O2)n1)c1ccccc1` (racemic) [Example 18], the efficacy in data set [1] is listed as 100%. Moreover, in data set [2] (HPLC), the “Log P” value is 4.56.
Regarding `Cc1snnc1C(=NOCc1csc(NC(=O)C2COc3ccccc3O2)n1)c1ccccc1` (stereo not drawn) [Example 1, N-{4-[({[(5-methyl-1,2,3-thiadiazol-4-yl)(phenyl)methylene]amino}oxy)methyl]-1,3-thiazol-2-yl}-2,3-dihydro-1,4-benzodioxine-2-carboxamide], the efficacy in data set [3] came out at 94%; in data set [1], 100%. The chromatographic logP in data set [2] (pH 2.7, [I1] main isomer, HPLC, pH 2.7, 0.1% formic acid, read-out: Log P) amounted to 3.99; in data set [2] (pH 2.7, mixture of Z and E diastereoisomers, two values, read-out: logP(HCOOH)), 3.99.
